This is an account of results in patent US20060063759A1, “Tricyclic steroid hormone nuclear receptor modulators” (priority 2002, published 2006).

For data set [1] the following is noted: in combination with standard CHF therapy, patients suffering from advanced CHF; cited from earlier work.
The target in a further data set is T1, human MR (Homo sapiens, UniProt P08235).
T1 construct: The full length human MR gene is cloned from a human kidney or human brain cDNA library; His tag from the pAcHLT vector (own knowledge); made in house; host or cells: Sf9 insect cells (baculovirus, pAcHLT transfer vector)
T1 sequence (P08235 1-984): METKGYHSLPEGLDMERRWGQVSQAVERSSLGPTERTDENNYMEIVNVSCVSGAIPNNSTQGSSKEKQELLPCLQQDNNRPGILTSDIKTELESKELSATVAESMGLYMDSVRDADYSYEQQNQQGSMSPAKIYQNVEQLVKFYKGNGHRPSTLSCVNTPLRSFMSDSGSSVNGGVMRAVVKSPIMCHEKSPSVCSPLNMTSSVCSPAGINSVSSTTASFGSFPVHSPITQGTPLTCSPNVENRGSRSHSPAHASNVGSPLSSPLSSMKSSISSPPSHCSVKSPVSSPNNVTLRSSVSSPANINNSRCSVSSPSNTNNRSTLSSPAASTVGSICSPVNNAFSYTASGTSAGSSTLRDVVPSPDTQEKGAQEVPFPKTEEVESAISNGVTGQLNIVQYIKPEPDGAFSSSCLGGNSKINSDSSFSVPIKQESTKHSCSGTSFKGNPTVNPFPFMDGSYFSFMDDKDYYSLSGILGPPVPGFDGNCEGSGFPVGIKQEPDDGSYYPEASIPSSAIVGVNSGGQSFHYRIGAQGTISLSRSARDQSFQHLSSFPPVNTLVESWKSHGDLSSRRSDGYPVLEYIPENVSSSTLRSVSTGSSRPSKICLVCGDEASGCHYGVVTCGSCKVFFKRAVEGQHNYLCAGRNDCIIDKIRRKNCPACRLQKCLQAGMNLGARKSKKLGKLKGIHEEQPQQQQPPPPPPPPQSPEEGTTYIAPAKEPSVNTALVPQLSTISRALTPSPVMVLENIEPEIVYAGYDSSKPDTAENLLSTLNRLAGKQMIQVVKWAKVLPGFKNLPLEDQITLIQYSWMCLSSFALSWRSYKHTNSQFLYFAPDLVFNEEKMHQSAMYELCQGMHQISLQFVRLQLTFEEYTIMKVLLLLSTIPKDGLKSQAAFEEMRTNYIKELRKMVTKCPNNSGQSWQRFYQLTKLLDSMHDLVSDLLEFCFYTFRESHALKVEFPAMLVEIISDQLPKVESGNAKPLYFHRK
The experiment in a line: Mineralocorticoid Receptor Binding Assay ([3H]-aldosterone). Conditions: [3H]-aldosterone binding, human MR expressed in Sf9 cells; read-out: MR Ki. An outline of the steps: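 Receptor source: freeze-thaw lysate of baculovirus-infected Sf9 cells carrying full-length human MR, 20-25 μg protein. Incubation ~16 h at 4 °C with shaking, pH 7.5 buffer containing 30 mM sodium molybdate and 10% glycerol.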

For the next data set, the target named is T2, glucocorticoid receptor (Homo sapiens, UniProt P04150).
T2 construct: containing 50-200 ug of A549 cell extract and 1.86 nM [^3H]-dexamethasone; host or cells: A549 human lung epithelial cells (sonicated cell extract)
T2 sequence (P04150 1-777): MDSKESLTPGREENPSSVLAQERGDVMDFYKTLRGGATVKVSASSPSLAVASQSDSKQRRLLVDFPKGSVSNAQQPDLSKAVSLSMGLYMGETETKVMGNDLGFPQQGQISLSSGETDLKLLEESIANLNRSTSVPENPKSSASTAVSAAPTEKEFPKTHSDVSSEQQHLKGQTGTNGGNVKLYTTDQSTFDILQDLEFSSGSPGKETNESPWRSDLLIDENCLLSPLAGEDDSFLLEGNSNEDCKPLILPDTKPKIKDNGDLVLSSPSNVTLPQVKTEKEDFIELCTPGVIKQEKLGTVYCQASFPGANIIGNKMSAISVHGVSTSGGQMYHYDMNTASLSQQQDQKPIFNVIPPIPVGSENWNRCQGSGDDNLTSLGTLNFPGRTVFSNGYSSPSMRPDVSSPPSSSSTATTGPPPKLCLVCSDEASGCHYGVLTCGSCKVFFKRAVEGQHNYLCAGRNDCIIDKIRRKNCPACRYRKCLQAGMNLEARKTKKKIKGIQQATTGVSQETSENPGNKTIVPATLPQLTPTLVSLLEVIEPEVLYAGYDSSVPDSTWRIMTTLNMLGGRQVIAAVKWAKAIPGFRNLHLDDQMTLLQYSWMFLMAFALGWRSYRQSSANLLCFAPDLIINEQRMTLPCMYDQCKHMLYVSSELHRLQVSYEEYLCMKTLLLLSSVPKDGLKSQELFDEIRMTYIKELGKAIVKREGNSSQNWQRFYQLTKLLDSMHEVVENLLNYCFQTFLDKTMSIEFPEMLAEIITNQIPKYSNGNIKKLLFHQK
Briefly: Glucocorticoid Receptor Binding Assay ([3H]-dexamethasone, A549 cell extract). Conditions: [3H]-dexamethasone binding, read-out: GR Ki. The gist of the method:
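Displacement of [3H]-dexamethasone (1.86 nM) from glucocorticoid receptor in sonicated A549 lung epithelial cell extracts, 16 h at 4 °C, pH 7.2 molybdate-containing buffer. Bound radioactivity was scintillation-counted after charcoal/dextran stripping of free ligand.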

Molecules are shown by their SMILES. Some results are limits rather than exact numbers.

`CC(=O)S[C@@H]1CC2=CC(=O)CC[C@]2(C)[C@H]2CC[C@@]3(C)[C@@H](CC[C@@]34CCC(=O)O4)[C@H]12` [spironolactone]: in data set [1], the “reduced cardiac related mortality” value was 30% and the “reduced frequency of hospitalization” value is 35%.

As usually defined, the Ki is a measure of affinity in units of concentration, obtained from inhibition or displacement. By melting point is commonly meant the temperature of the solid-liquid transition. As for `CS(=O)(=O)Nc1ccc(C=C2c3ccccc3CCc3ccccc32)cc1` [Example 99, N-[4-(10,11-Dihydro-dibenzo[a,d]cyclohepten-5-ylidenemethyl)-phenyl]-methanesulfonamide], the melting point stood at 210.7 °C. The Ki on human MR is less than 500 nM. In addition, the Ki at glucocorticoid receptor was less than 1000 nM.

With `FC(F)c1cccc(C=C2c3ccccc3CCc3ccccc32)c1` [Example 72, 5-(3-Difluoromethyl-benzylidene)-10,11-dihydro-5H-dibenzo[a,d]cycloheptene], the melting point was determined as 92.5 °C. For the same compound, the Ki at human MR is less than 500 nM. In addition, the Ki on glucocorticoid receptor was less than 10000 nM.

As to `FC(F)Oc1cccc(C=C2c3ccccc3CCc3ccccc32)c1` [Example 65, 5-(3-Difluoromethoxy-benzylidene)-10,11-dihydro-5H-dibenzo[a,d]cycloheptene], the melting point stood at 91.3 °C. The Ki on human MR is less than 500 nM. Further, at glucocorticoid receptor, the Ki was less than 10000 nM.

With `CS(=O)(=O)Nc1cccc(C=C2c3ccccc3C3C(c4ccccc42)C3(Cl)Cl)c1` (centres unmarked) [Example 259, N-[3-(8,8-Dichloro-4-ylidenemethyl-2,3,5,6-dibenzobicyclo[5.1.0]octane)-phenyl]-methanesulfonamide], the melting point was in the range of 199 to 201 °C. In addition, at human MR, the Ki was less than 500 nM. Further, at glucocorticoid receptor, the Ki is less than 10000 nM.

As for `COc1ccc2c(c1)CCc1cc(OC)ccc1C2=Cc1cccc(NS(C)(=O)=O)c1` [Example 191, N-[3-(2,8-Dimethoxy-10,11-dihydro-dibenzo[a,d]cyclohepten-5-ylidenemethyl)-phenyl]-methanesulfonamide], the melting point worked out at 109.6 °C. Further, the Ki on human MR was less than 500 nM. Besides, at glucocorticoid receptor, the Ki is less than 500 nM.

For the compound `Oc1ccc(C=C2c3ccccc3CCc3ccccc32)cc1O` [Example 62, 4-(10,11-Dihydro-dibenzo[a,d]cyclohepten-5-ylidenemethyl)-benzene-1,2-diol], the melting point amounted to 138 °C. In addition, the Ki at human MR was less than 500 nM. Besides, the Ki on glucocorticoid receptor was less than 10000 nM.

Take `CC(C)S(=O)(=O)Nc1cccc(C=C2c3ccccc3CCc3ccccc32)c1` [Example 92, Propane-2-sulfonic acid [3-(10,11-dihydro-dibenzo[a,d]cyclohepten-5-ylidenemethyl)-phenyl]-amide]: the melting point was 187.7 °C. For the same compound, the Ki on human MR was less than 500 nM. In addition, the Ki on glucocorticoid receptor is less than 500 nM.

Turning to `Cc1noc(C)c1S(=O)(=O)Nc1cccc(C=C2c3ccccc3CCc3ccccc32)c1` [Example 94, 3,5-Dimethyl-isoxazole-4-sulfonic acid [3-(10,11-dihydro-dibenzo[a,d]cyclohepten-5-ylidenemethyl)-phenyl]-amide], the melting point worked out at 149.3 °C. Also, the Ki at human MR is less than 500 nM. For the same compound, the Ki on glucocorticoid receptor is less than 500 nM.

`CC(=O)Nc1ccc(C=C2c3ccccc3CCc3ccccc32)cc1` [Example 116, N-[4-(10,11-Dihydro-dibenzo[a,d]cyclohepten-5-ylidenemethyl)-phenyl]-acetamide] showed a melting point of 134.8 °C. Further, the Ki on human MR is less than 500 nM. In addition, the Ki on glucocorticoid receptor was less than 500 nM.
